# In patent US20230349922A1, “H2 Blockers Targeting Liver Macrophages for the Prevention and Treatment of Liver Disease and Cancer” (Université de Strasbourg, priority 2020, published 2023):
# Columns and labels:
# HRH2/cAMP/PKA axis = assay: PLS assessment upon perturbation of the HRH2/cAMP/PKA axis in Huh7.5.1dif cells; format: cell-based, human; details: 48 hours, histamine 10 μM, 8-CPT cAMP 100 μM, H89 10 μM
# Method: Histamine, 8-CPT, cAMP and H89 Treatment. Huh7.5.1^dif cells were cultured in DMEM containing 1% FBS and 1% DMSO and incubated with histamine (10 μM) or histamine+nizatidine (10 μM) for 48 hours. Fresh medium containing histamine was replenished every 12 hours. For 8-CPT cAMP and H89, Huh7.5.1^dif cells cultured in DMEM 1% DMSO and 1% FBS were incubated with 8-CPT cAMP (100 μM), H89 (1 μM) or DMSO as a control for 48 hours. Fresh medium containing 8-CPT cAMP was replenished every 12 hours.
# Transcriptomic Analysis and PLS Calculation. Gene expression profiling and the 32 gene PLS 32 profiling were performed using 250-500 ng total RNA by using either nCounter Digital Analyzer system (NanoString) or the HumanHT-12 beadarray (Illumina) for the time-course experiments. PLS gene expression was normalized according to 6 housekeeping gene expression using GenePattern genomic analysis toolkits (Hoshida, PLOS ONE, 2010, 5: e15543; Peck et al., Genome Biol., 2006, 7: R61; Reich et al., Nature Genet., 2006, 38: 500-501). Induction or suppression of PLS risk signature was determined as previously reported by using Gene Set Enrichment Analysis (GSEA), implemented in GenePattern genomic analysis toolkits (Hoshida, PLOS ONE, 2010, 5: e15543; Peck et al., Genome Biol., 2006, 7: R61; Reich et al., Nature Genet., 2006, 38: 500-501). PLS was always determined by using CTRL cells as references. Results are presented as simplified heatmaps showing the classification of PLS global status as poor or good prognosis and the significance of induction/suppression of PLS genes (log 10 of false discovery rate (FDR) values). For each experiment, heatmaps show: in the upper part: the classification of PLS global status as poor (orange) or good (green) prognosis, and in the bottom part: the significance of induction (red) or suppression (blue) of PLS poor- or good-prognosis genes. Global status corresponds to the difference between low risk- and high risk-gene expression. The statistic tests, normalized enrichment score (NES) and FDR values are provided for each PLS experiment (poor- and good-prognosis genes variation and global status) in the Source Data file.
# HCC = details: one animal model study (Furuta et al., 2008), circumstantial evidence; cited from earlier work
# natural killer cell = details: patients with transarterial chemoembolization (Nishiguchi et al., 2003); cited from earlier work
# [1] = in vivo; cited from earlier work
# [2] = in vivo; cited from earlier work; remark: listed apart in the source
# [3] = test system: prognostic liver signature (PLS); assay: cPLS model: reversal of the prognostic liver signature in HCV-infected Huh7.5.1dif cells; format: cell-based, human; details: Huh7.5.1dif cells infected with HCV Jc1 for 7 days, treated 3 additional days; GSEA
# [4] = rodents; cited from earlier work
# [5] = test system: M1-polarized THP1-derived macrophages; assay: RNA-Seq / GSEA of M1-polarized THP1-derived macrophages treated with Oxmetidine; format: cell-based, human
# Method: M1 Macrophage Polarization and HRH2 Blocker Treatment. THP1 cells were cultured in RPMI 1640 Medium with GlutaMAX™-I supplement and HEPES and supplemented with 10% FBS and gentamycin (0.05 mg/mL). M1 macrophage polarization from THP-1 was performed as previously described (Yeung et al., J. Hepatol., 2015, 62: 607-616). To generate MO THP-1 macrophages, THP1 cells were treated with PMA 320 nM for 24 hours. To generate M1-polarized THP-1 macrophages, THP-1 cells were treated with […] then with 100 ng/ml LPS and 20 ng/ml IFNγ for 18 hours. Cells then were treated with HRH2 blockers 20 μM or DMSO vehicle for 72 hours.
# RNA-Seq of M1 macrophages. RNA-Seq was performed on total RNA from MO macrophages, M1-polarized macrophages, and M1-polarized macrophages treated with Oxmetidine, Nizatidine or DMSO (triplicates). RNA-Seq was performed by the Biomedical Sequencing Facility (BSF) CEMM Research Center for Molecular Medicine of the Austrian Academy of Sciences, Vienna (Austria). Briefly, RNA-Seq libraries were generated from 300 ng of total RNA using TruSeq Stranded mRNA Sample Preparation Kit (Illumina, Part Number RS-122-2101). Following purification with poly-T oligo attached magnetic beads, the mRNA was fragmented using divalent cations at 94° C. for 2 minutes. The cleaved RNA fragments were copied into first strand cDNA using reverse transcriptase and random primers. Strand specificity was achieved by replacing dTTP with dUTP during second strand cDNA synthesis using DNA Polymerase I and RNase H. Following addition of a single ‘A’ base and subsequent ligation of the adapter on double stranded cDNA fragments, the products were purified and enriched with PCR (30 seconds at 98° C.; [10 seconds at 98° C., 30 seconds at 60° C., 30 seconds at 72° C.]×12 cycles; 5 minutes at 72° C.) to create the cDNA library. Surplus PCR primers were further removed by purification using AMPure XP beads (Beckman Coulter) and the final cDNA libraries were checked for quality and quantified using 2100 Bioanalyzer (Agilent). Libraries were sequenced on the Illumina HiSeq 4000 as Single-Read 50 base reads following Illumina's instructions. Image analysis and base calling were performed using RTA v2.7.3 and bcl2fastq v2.17.1.14.
# [6] = Farup, Scand. J. Gastroenterol., 1988; cited from earlier work
# [7] = test system: patient-derived HCC tumor spheroids; assay: Cell viability (ATP, CellTiter-Glo) of patient-derived HCC tumorspheroids; format: cell-based, human; details: sorafenib 10 μM, 4 days; some of the patient tumors
# Method: Patient-Derived HCC Tumor Spheroids. Tumorspheroids were generated from liver tissues from HCC patients undergoing surgical resection and dissociated using the Human Tumor Dissociation Kit. Total cell populations including epithelical (i.e., cancer cells/hepatocytes) and NPCs were used to generate multicellular tumorspheroids in Corning® 96-well Black/Clear Bottom Low Flange Ultra-Low Attachment Microplates (Corning). After 48 hours, HCC-derived spheroids were treated with nizatidine 50 μM, sorafenib 10 μM or DMSO vehicle control for 4 days. Fresh medium containing DMSO or drugs was added every day. Cell viability was assessed using CellTiter-Glo® (Luminescent Cell Viability Assay), according to manufacturer's instruction.
# [8] = Oxmetidine vs DMSO, 72 hours, GSEA
# [9] = Oxmetidine vs DMSO, 72 hours, GSEA, in contrast to Nizatidine
# [10] = single gene level, top 10 of Oxmetidine modulated genes
smiles,measurement,setting,value
Nc1ncnc2c1nc(Sc1ccc(Cl)cc1)n2[C@@H]1O[C@@H]2COP(=O)(O)O[C@H]2[C@H]1O [8-CPT-cAMP],PLS poor-prognosis status upon perturbation of the HRH2/cAMP/PKA axis,HRH2/cAMP/PKA axis,induction of the poor-prognosis status of the PLS
CN/C(=N/CCSCc1nc[nH]c1C)NC#N [Cimetidine],anti-HCC effect,HCC,anti-HCC effect
same,natural killer cell activity in peripheral blood,natural killer cell,improves natural killer cell activity in peripheral blood
"NC(N)=Nc1nc(CSCCN/C=N/S(=O)(=O)c2ccc(Br)cc2)cs1 [Ebrotidine, 4-bromo-N-[[[2-[[[2-[(diaminomethylene)amino]-4-thiazolyl]methyl]thio]ethyl]amino]methylene] benzenesulfonamide]",efficacy for the treatment of gastric or duodenal ulcers or erosive reflux oesophagitis,[1],as effective as Ranitidine
same,"activity against ethanol-, aspirin- or stress-induced gastric mucosal damage",[2],gastroprotective activity
"NC(N)=Nc1nc(CSCCC(N)=NS(N)(=O)=O)cs1 [Famotidine, 3-[[2-(diaminomethylideneamino)-1,3-thiazol-4-yl]methylsulfanyl]-N′-sulfamoyl-propanimidamide]",reversal of the poor prognosis status of the prognostic liver signature (PLS),[3],partial reversal of the PLS
O=S(=O)(NCCNC/C=C/c1ccc(Br)cc1)c1cccc2cnccc12 [H89],PLS poor-prognosis status upon perturbation of the HRH2/cAMP/PKA axis,HRH2/cAMP/PKA axis,reversed the induction of the PLS poor-prognosis status
Cn1nc(CO)nc1NCCCOc1cccc(CN2CCCCC2)c1 [Lavoltidine],gastric carcinoid tumors,[4],produced gastric carcinoid tumors in rodents
"CC(C)/N=C/Nc1ccc(-c2c[nH]cn2)cc1 [Mifentidine, N-(4-(1H-imidazol-4-yl)phenyl)-N′-(1-methylethyl)methanimidamide]",gastric carcinoid tumors,[4],produced gastric carcinoid tumors in rodents
"Cc1[nH]cnc1CSCCNc1ncc(Cc2ccc3c(c2)OCO3)c(=O)[nH]1 [Oxmetidine, 5-(1,3-benzodioxol-5-ylmethyl)-2-[2-[(5-methyl-1H-imidazol-4-yl)methylsulfanyl]ethylamino]-1H-pyrimidin-6-one]",antigen presentation related-pathways,[5]; [8],improves antigen presentation related-pathways
same,"pathway mediating inflammation (TNFα, IL6)",[5]; [8],strongly suppresses pathway mediating inflammation
same,IFN response,[5]; [9],strong reduction in IFN response
same,cell metabolism,[5]; [9],improvement of cell metabolism
same,"expression of key genes regulating lipid metabolism (ABCG1, ABCA1, SREBF1)",[5]; [10],increase in expression of key genes regulating lipid metabolism
same,"pro-inflammatory gene expression (CCL7, CCL2, IL6)",[5]; [10],decrease in pro-inflammatory gene expression
"Cc1ncc(-c2csc(N=C(N)N)n2)[nH]1 [Zaltidine, 2-[4-(2-methyl-1H-imidazol-5-yl)-1,3-thiazol-2-yl]guanidine]",hepatotoxicity,[6],hepatotoxic
NCCc1c[nH]cn1 [histamine],PLS poor-prognosis status upon perturbation of the HRH2/cAMP/PKA axis,HRH2/cAMP/PKA axis,Induction of the PLS poor-prognosis status
CNC(=O)c1cc(Oc2ccc(NC(=O)Nc3ccc(Cl)c(C(F)(F)F)c3)cc2)ccn1 [sorafenib],tumor spheroid response,[7],did not respond
